Data on 36 compounds can be found in patent US11692004B2, “Substituted pyrazole compound, preparation method therefor, pharmaceutical composition and medical use thereof” (JIANGSU VANGUARD PHARMACEUTICAL CO., LTD., priority 2018, dated 2023).

One data set concerns PC12 cells. As to the kind of experiment: In-vitro neuroprotection-I (H2O2 injury, MTT). Type of data set: cell-based. As to conditions: Rattus norvegicus, PC-12, 48 h compound, then 200 μM H2O2 24 h, MTT survival rate. How it is done: All samples were made into 60 mM stock solution by DMSO, which were 200 times diluted to 300 μM by medium. And the final concentration was further diluted into different concentrations by media.
Control: Normal cell-plating and same cell medium as other group. 24 hours later, the medium was discarded. Incubate the cell in new media for 24 hours. No compound and hydrogen peroxide treatment. Other steps were the same as the sample test as mentioned below did.
Blank: no cell plating, cell medium, and other steps were the same as the sample test as mentioned below did.
(§1) After resuscitating, the PC12 cells were cultured in RPMI-1640 containing 10% horse serum and 5% Fetus Bovine Serum (FBS) under 5% CO2 at 37° C. for two weeks. The medium was changed every other day. The compounds were diluted into solutions of 12.5, 25, 50, 100, 200, 300 μM with culture medium (except that examples 33-45 with additional solutions of 400 μM and 500 μM). The PC 12 cells were seeded into a 96-well plate at a density of 8×10^3 cells/well and cultured in a 37° C., 5% CO2 incubator for 24 hours. Removed the medium, the cells were added with the compound solutions of different concentrations as test solutions for another 48 h incubation in a 37° C., 5% CO2 incubator. After the incubation, apart from the blank and control groups, the wells (including 0 μM drug group) were added to the medium-prepared 200 μM H2O2, and continued for another 24 h incubation in a 37° C., 5% CO2 incubator.
After the incubation, the wells were added with 20 μL 5 mg/mL MTT and incubated for 4 hours at 37° C. Carefully removed the medium and added 150 μL DMSO. The plates were placed on an enzyme-labeled instrument and vibrated for 5 min. The absorbance Atest solution were obtained at 490 nm with the Ablank of the well without cells and the Acontrol of the well with untreated cells. The survival rate of the cells in every well by the formula survival rate (%)=(Atest solution−Ablank)/(Acontrol−Ablank)*100%.

Another data set is described as follows: Cytotoxic test (MTT). In kind it is cell-based. As to conditions: rat, PC12 cells, 48 h incubation. As to the method:
as §1, with “(except” for “(except that”, “PC12” for “PC 12”, “1.2×10^4” for “8×10^3”, “Remove” for “Removed”, “incubator.” for “incubator. After the incubation, apart from the blank and control groups, the wells (including 0 μM drug group) were added to the medium-prepared 200 μM H2O2, and continued for another 24 h incubation in a 37° C., 5% CO2 incubator.”
After the incubation, the wells were added with 20 μL 5 mg/mL MTT and incubated for 4 hours at 37° C. Carefully removed the medium and added 150 μL DMSO. The plates were placed on an enzyme-labeled instrument and vibrated for 5 min. The absorbance Atest solution were obtained at 490 nm with the Ablank of the well without cells and the Acontrol of the well with untreated cells. The survival rates of the cells in every well were calculated by the formula as Survival rate (%)=(Atest solution−Ablank)/(Acontrol−Ablank)*100%

In data set [1] the test system is MCAO model (middle cerebral artery ischemia-reperfusion). As to the kind of experiment: In vivo drug efficacy test of MCAO model. The conditions noted are these: SD rats, MCAO 2 h then reperfusion, tail vein infusion 30 min; for Cerebral infarction area (%): TTC staining, infarct area to whole brain area; for Improvements of nerve function (%): score at 24 h versus model control.

By EC50 is commonly meant the concentration needed to bring the measured effect to its halfway point. A lower EC50 goes with an effect from little substance. What is called IC50 is the concentration needed to halve the response being measured. High values mean a need for much substance, low ones inhibition by little substance. In the case of `Cc1cc(OC(C)OC(=O)C(C)(C)C)n(-c2ccccc2)n1` (stereo not shown) [Compound 4, 1-(3-methyl-1-phenylpyrazole) oxyethyl pivalate], the response in the data set on PC12 cells was half-maximal at 69.5 µM (EC50). Also, the IC50 at 48 h in “Cytotoxic test (MTT)” is over 300 µM. Turning to `CCOC(=O)Oc1ccccc1C(=O)OCOc1cc(C)nn1-c1ccccc1` [Compound 21, (3-methyl-1-phenylpyrazole-5-) oxymethyl-(2-ethoxycarbonyloxy) benzoate], it took 82.1 µM to reach a half-maximal effect in the data set on PC12 cells (EC50). Take `Cc1cc(OCNC(=O)CCCc2ccccc2)n(-c2ccccc2)n1` [Compound 50, N-((1-phenyl-3-methyl-1H-pyrazol-5-yl)oxy) methylphenylbutyramide]: the EC50 in the data set with PC12 cells stood at 101 µM. This EC50 and that of the compound before are within 1.5-fold of each other. `CCCCCCCCCCCCCCCCCC(=O)OCOc1cc(C)nn1-c1ccccc1` [Compound 32] showed an EC50 in the data set with PC12 cells of 80.7 µM. Further, in “Cytotoxic test (MTT)”, the IC50 at 48 h was over 300 µM.

As for `CCCCCCCC(=O)OCOc1cc(C)nn1-c1ccccc1` [Compound 15, (3-methyl-1-phenylpyrazol-5-) oxymethyl octanoate], in data set [1], the “Cerebral infarction area (%)” value was 20.0% and the “Improvements of nerve function (%)” value is given as 15.9%. In addition, in the data set with PC12 cells, the EC50 came to 67.2 µM. `Cc1cc(OCOC(=O)C2CC2)n(-c2ccccc2)n1` [Compound 28] had an EC50 in the data set with PC12 cells of 85.9 µM. Same read-out and setting: under `Cc1cc(OCNC(=O)C(C)(C)C)n(-c2ccccc2)n1` [Compound 44, N-((1-phenyl-3-methyl-1H-pyrazol-5-yl)oxy) methyltrimethylacetamide] stands 77.9 µM. In the case of `Cc1cc(OCOC(=O)CCCc2ccccc2)n(-c2ccccc2)n1` [Compound 16, (3-methyl-1-phenylpyrazol-5-) oxymethyl phenylbutyrate], in data set [1], the “Cerebral infarction area (%)” value is 19.9% and the “Improvements of nerve function (%)” value is 16.2%. This compound showed an EC50 with PC12 cells of 48 µM. In addition, the IC50 at 48 h in the data set “Cytotoxic test (MTT)” was determined as 234 µM. Turning to `Cc1cc(OCOC(=O)C(C)C)n(-c2ccccc2)n1` [Compound 14, (3-methyl-1-phenylpyrazol-5-) oxymethyl isobutyrate], the EC50 with PC12 cells was determined as 45.2 µM.

On to `Cc1cc(OCNC(=O)c2ccccc2)n(-c2ccccc2)n1` [Compound 48, N-((1-phenyl-3-methyl-1H-pyrazol-5-yl)oxy) methylbenzamide], for which the EC50 with PC12 cells was 123 µM. In turn, `Cc1cc(OCNC(=O)C2CC2)n(-c2ccccc2)n1` [Compound 45, N-((1-phenyl-3-methyl-1H-pyrazol-5-yl)oxy) methylcyclopropylformamide] displayed an EC50 in the data set on PC12 cells of 75.3 µM.

Compound `CCCCCCCCCCCCCCCCCC(=O)OC(C)Oc1cc(C)nn1-c1ccccc1` (stereo not shown) [Compound 6] came in with an EC50 in the data set with PC12 cells of 56.8 µM. Turning to `Cc1cc(OCNC(=O)Cc2ccccc2)n(-c2ccccc2)n1` [Compound 49, N-((1-phenyl-3-methyl-1H-pyrazol-5-yl)oxy) methylphenylacetamide], the IC50 at 48 h in “Cytotoxic test (MTT)” is over 300 µM.

For the compound `Cc1cc(OCOC(=O)C(C)(C)C)n(-c2ccccc2)n1` [Compound 13, (3-methyl-1-phenylpyrazol-5-) oxymethyl pivalate], in data set [1], the “Cerebral infarction area (%)” value came to 17.5% and the “Improvements of nerve function (%)” value stood at 17.2%. Further, in the data set on PC12 cells, the EC50 came out at 110 µM. Half-maximal inhibition in the data set “Cytotoxic test (MTT)” (IC50 at 48 h) required 252 µM. For `Cc1cc(OC(C)OC(=O)Cc2ccccc2)n(-c2ccccc2)n1` (stereo not shown) [Compound 8], the EC50 with PC12 cells is 100 µM. In the data set with PC12 cells, `CC(=O)OCOc1cc(C)nn1-c1ccccc1` [Compound 26] registered an EC50 of 54.8 µM. In the data set “Cytotoxic test (MTT)”, this compound showed an IC50 at 48 h of over 300 µM. For `Cc1cc(OCOC(=O)c2ccccc2)n(-c2ccccc2)n1` [Compound 18, (3-methyl-1-phenylpyrazol-5-) oxymethyl benzoate] the same measures were 75 µM and over 300 µM.

Compound `Cc1cc(OCOC(=O)c2ccccc2OC(=O)C(C)C)n(-c2ccccc2)n1` [Compound 22, (3-methyl-1-phenylpyrazol-5-)oxymethyl-(2-isobutyryloxy)benzoic acid] had an EC50 in the data set with PC12 cells of 103 µM.

Compound `Cc1cc(OCOC(=O)c2ccccc2O)n(-c2ccccc2)n1` [Compound 19, (3-methyl-1-phenylpyrazol-5-) oxymethyl-(2-hydroxy) benzoate] returned an IC50 at 48 h in “Cytotoxic test (MTT)” of over 300 µM.

`CCCCCCCC(=O)OC(C)Oc1cc(C)nn1-c1ccccc1` (stereo not shown) [Compound 5, 1-(3-methyl-1-phenylpyrazole)oxyethyl octanoate] registered an IC50 at 48 h in “Cytotoxic test (MTT)” of over 300 µM. As to `CC(=O)OC(C)Oc1cc(C)nn1-c1ccccc1` (stereo not shown) [Compound 1], the response with PC12 cells was half-maximal at 66.4 µM (EC50). This counts as double-digit micromolar. In the case of `Cc1cc(OCNC(=O)C2CCCC2)n(-c2ccccc2)n1` [Compound 46, N-((1-phenyl-3-methyl-1H-pyrazol-5-yl)oxy) methylcyclopentylformamide], the half-maximal effective concentration (EC50) in the data set on PC12 cells came out at 90.1 µM. With `Cc1cc(OCNC(=O)C(C)C)n(-c2ccccc2)n1` [Compound 43, N-((1-phenyl-3-methyl-1H-pyrazol-5-yl)oxy) methylisobutyramide], in data set [1], the “Cerebral infarction area (%)” value amounted to 19.8% and the “Improvements of nerve function (%)” value was determined as 16.1%. The compound also returned an EC50 with PC12 cells of 58.1 µM. `Cc1cc(OC(C)OC(=O)C(C)C)n(-c2ccccc2)n1` (stereo not shown) [Compound 3, 1-(3-methyl-1-phenylpyrazole) oxyethyl isobutyrate] came in with an EC50 with PC12 cells of 98 µM. In the data set “Cytotoxic test (MTT)”, the IC50 at 48 h is over 300 µM. Regarding `Cc1cc(OC(C)OC(=O)C2CCCCC2)n(-c2ccccc2)n1` (stereo not shown) [Compound 12], in the data set on PC12 cells, the EC50 was found to be 89 µM. With `Cc1cc(OC(C)OC(=O)c2ccccc2)n(-c2ccccc2)n1` (stereo not shown) [Compound 7, 1-(3-methyl-1-phenylpyrazole) oxyethyl benzoate], the EC50 in the data set on PC12 cells came out at 88.9 µM. The same compound gave an IC50 at 48 h in “Cytotoxic test (MTT)” of over 300 µM. Compound `CC(=O)NCOc1cc(C)nn1-c1ccccc1` [Compound 41, N-((1-phenyl-3-methyl-1H-pyrazol-5-yl)oxy) methylacetamide] registered an EC50 in the data set on PC12 cells of 55.1 µM. That is a double-digit micromolar value.

In turn, `Cc1cc(OCOC(=O)c2cccc(N(C)C)c2O)n(-c2ccccc2)n1` [Compound 23, (3-methyl-1-phenylpyrazol-5-) oxymethyl-(2-hydroxy-3-N,N-dimethyl)benzoate] gave an EC50 in the data set with PC12 cells of 124 µM. `Cc1cc(OCOC(=O)C2CCCCC2)n(-c2ccccc2)n1` [Compound 30]: the EC50 with PC12 cells was 77.2 µM.

In the case of `Cc1cc(OCOC(=O)c2cccnc2)n(-c2ccccc2)n1` [Compound 17, (3-methyl-1-phenylpyrazol-5-) oxymethyl nicotinate], the response with PC12 cells was half-maximal at 94.9 µM (EC50). Besides, in the data set “Cytotoxic test (MTT)”, the IC50 at 48 h was over 300 µM. Regarding `CCCCCCCCCCCCCCCCCC(=O)NCOc1cc(C)nn1-c1ccccc1` [Compound 52, N-((1-phenyl-3-methyl-1H-pyrazol-5-yl)oxy)methyl stearamide], a half-maximal response in the data set on PC12 cells (EC50) required 78.6 µM. This counts as double-digit micromolar. With `CCC(=O)NCOc1cc(C)nn1-c1ccccc1` [Compound 42, N-((1-phenyl-3-methyl-1H-pyrazol-5-yl)oxy) methyl propionamide], in data set [1], the “Cerebral infarction area (%)” value is given as 19.7% and the “Improvements of nerve function (%)” value is on record as 15.9%. Also, the EC50 in the data set on PC12 cells came to 75.4 µM. In the data set “Cytotoxic test (MTT)”, the IC50 at 48 h is over 300 µM. Regarding `Cc1cc(OCOC(=O)Cc2ccccc2)n(-c2ccccc2)n1` [Compound 31], the EC50 in the data set with PC12 cells came out at 91.2 µM. Regarding `Cc1cc(OCNC(=O)C2CCCCC2)n(-c2ccccc2)n1` [Compound 47, N-((1-phenyl-3-methyl-1H-pyrazol-5-yl)oxy) methylcyclohexanecarboxamide], the midpoint of the response in the data set with PC12 cells, the EC50, lay at 53.6 µM. In the data set “Cytotoxic test (MTT)”, the IC50 at 48 h amounted to 269 µM. For `CCOC(=O)Oc1ccc(N(C)C)cc1C(=O)OCOc1cc(C)nn1-c1ccccc1` [Compound 25, (3-methyl-1-phenylpyrazole-5-) oxymethyl-(2-ethoxycarbonyloxy-5-N,N-dimethyl)benzoic Acid] the same measures were 59.3 µM and over 300 µM.

In turn, `Cc1cc(OC(C)OC(=O)C2CC2)n(-c2ccccc2)n1` (stereo not shown) [Compound 10] displayed an EC50 in the data set on PC12 cells of 55.7 µM.
